Laboratory results: PubChem BioAssay AID2060610 (Molecular Pharmacology Branch, DTP, NCI, 2025)

Tested on: 616215-338-R-J1-PDC complex spheroids, viability % test/control
Assay: Anticancer human tumor 616215-338-R-J1-PDC patient-derived colon adenocarcinoma cell line growth inhibition [CLK]
Settings: for IC50: curve of first compound; for viability, T/C: stronger effect = lower value
Summary of the method: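 Patient-derived tumor cells grown as complex spheroids with HUVEC endothelial cells and mesenchymal stem cells, treated with drug combinations. Concentrations descend in half-log steps from near clinical Cmax, or from 10 microM if Cmax unknown.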

[1] = second compound 0.0316 µM, first compound 0.0316 µM
[2] = second compound 0.0316 µM, first compound 0.1 µM
[3] = second compound 0.0316 µM, first compound 0.316 µM
[4] = second compound 0.0316 µM, first compound 1 µM
[5] = second compound 0.0316 µM, first compound 3.16 µM
[6] = second compound 0.0316 µM, first compound 10 µM
[7] = second compound 0.1 µM, first compound 0.0316 µM
[8] = second compound 0.1 µM, first compound 0.1 µM
[9] = second compound 0.1 µM, first compound 0.316 µM
[10] = second compound 0.1 µM, first compound 1 µM
[11] = second compound 0.1 µM, first compound 3.16 µM
[12] = second compound 0.1 µM, first compound 10 µM
[13] = second compound 0.316 µM, first compound 0.0316 µM
[14] = second compound 0.316 µM, first compound 0.1 µM
[15] = second compound 0.316 µM, first compound 0.316 µM
[16] = second compound 0.316 µM, first compound 1 µM
[17] = second compound 0.316 µM, first compound 3.16 µM
[18] = second compound 0.316 µM, first compound 10 µM
[19] = second compound 1 µM, first compound 0.0316 µM
[20] = second compound 1 µM, first compound 0.1 µM
[21] = second compound 1 µM, first compound 0.316 µM
[22] = second compound 1 µM, first compound 1 µM
[23] = second compound 1 µM, first compound 3.16 µM
[24] = second compound 1 µM, first compound 10 µM
[25] = second compound 3.16 µM, first compound 0.0316 µM
[26] = second compound 3.16 µM, first compound 0.1 µM
[27] = second compound 3.16 µM, first compound 0.316 µM
[28] = second compound 3.16 µM, first compound 1 µM
[29] = second compound 3.16 µM, first compound 3.16 µM
[30] = second compound 3.16 µM, first compound 10 µM
[31] = second compound 10 µM, first compound 0.0316 µM
[32] = second compound 10 µM, first compound 0.1 µM
[33] = second compound 10 µM, first compound 0.316 µM
[34] = second compound 10 µM, first compound 1 µM
[35] = second compound 10 µM, first compound 3.16 µM
[36] = second compound 10 µM, first compound 10 µM
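Further: spheroids exposed to agents for 7 days.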
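Wherever viability, T/C is given: 100% = DMSO vehicle wells.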

**Q.** What does the source list for COc1cccc2c1C(=O)c1c(O)c3c(c(O)c1C2=O)CC(O)(C(=O)CO)CC3OC1CC(N)C(O)C(C)O1 (stereo unspecified) + CN1CCN(c2cc(C(=O)Nc3cc4cc(-c5cnn(C)c5)ccc4cn3)ccn2)CC1?
**A.** IC50 (second compound 0.0316 µM): 211 nM; IC50 (second compound 0.1 µM): 142 nM; IC50 (second compound 0.316 µM): < 31.6 nM; IC50 (second compound 1 µM): < 31.6 nM; IC50 (second compound 3.16 µM): < 31.6 nM; IC50 (second compound 10 µM): < 31.6 nM; viability, T/C [1]: 82.5%; viability, T/C [2]: 42.5%; viability, T/C [3]: 51.5%; viability, T/C [4]: 41.8%; viability, T/C [5]: 0.43%; viability, T/C [6]: 0.14%; viability, T/C [7]: 71%; viability, T/C [8]: 44.8%; viability, T/C [9]: 42.5%; viability, T/C [10]: 37.9%; viability, T/C [11]: 0.52%; viability, T/C [12]: 0.13%; viability, T/C [13]: 27.6%; viability, T/C [14]: 32.9%; viability, T/C [15]: 21.8%; viability, T/C [16]: 2.19%; viability, T/C [17]: 0.13%; viability, T/C [18]: 0.13%; viability, T/C [19]: 0.14%; viability, T/C [20]: 0.17%; viability, T/C [21]: 0.16%; viability, T/C [22]: 0.1%; viability, T/C [23]: 0.09%; viability, T/C [24]: 0.11%; viability, T/C [25]: 0.09%; viability, T/C [26]: 0.12%; viability, T/C [27]: 0.11%; viability, T/C [28]: 0.09%; viability, T/C [29]: 0.12%; viability, T/C [30]: 0.71%; viability, T/C [31]: 0.1%; viability, T/C [32]: 0.12%; viability, T/C [33]: 0.46%; viability, T/C [34]: 0.13%; viability, T/C [35]: 0.16%; viability, T/C [36]: 0.17%

**Q.** For COc1ccc([C@@H](O)c2cc(-c3ncnc4cc(N5CCOCC5)ccc34)c(F)cc2Cl)nn1 + CN1CCN(c2cc(C(=O)Nc3cc4cc(-c5cnn(C)c5)ccc4cn3)ccn2)CC1, which IC50 (second compound 0.0316 µM) is on record?
**A.** > 10000 nM

**Q.** And the IC50 (second compound 0.1 µM)?
**A.** 9460 nM

**Q.** And the IC50 (second compound 0.316 µM)?
**A.** < 31.6 nM

**Q.** And the IC50 (second compound 1 µM)?
**A.** < 31.6 nM

**Q.** What about the IC50 (second compound 3.16 µM) of the same compound?
**A.** < 31.6 nM

**Q.** What about the IC50 (second compound 10 µM) of the same compound?
**A.** < 31.6 nM

**Q.** And the viability, T/C [1]?
**A.** 105%

**Q.** What about the viability, T/C [2] of the same compound?
**A.** 106%

**Q.** And the viability, T/C [3]?
**A.** 105%

**Q.** And the viability, T/C [4]?
**A.** 109%

**Q.** What about the viability, T/C [5] of the same compound?
**A.** 111%

**Q.** What about the viability, T/C [6] of the same compound?
**A.** 67.7%

**Q.** And the viability, T/C [7]?
**A.** 122%

**Q.** And the viability, T/C [8]?
**A.** 107%

**Q.** And the viability, T/C [9]?
**A.** 104%

**Q.** What about the viability, T/C [10] of the same compound?
**A.** 103%

**Q.** What about the viability, T/C [11] of the same compound?
**A.** 88.4%

**Q.** And the viability, T/C [12]?
**A.** 47.2%

**Q.** And the viability, T/C [13]?
**A.** 25.2%

**Q.** And the viability, T/C [14]?
**A.** 30.6%

**Q.** What about the viability, T/C [15] of the same compound?
**A.** 25.9%

**Q.** And the viability, T/C [16]?
**A.** 19.8%

**Q.** What about the viability, T/C [17] of the same compound?
**A.** 17.9%

**Q.** And the viability, T/C [18]?
**A.** 7.77%

**Q.** And the viability, T/C [19]?
**A.** 0.11%

**Q.** What about the viability, T/C [20] of the same compound?
**A.** 0.15%

**Q.** And the viability, T/C [21]?
**A.** 1.72%

**Q.** What about the viability, T/C [22] of the same compound?
**A.** 0.1%

**Q.** And the viability, T/C [23]?
**A.** 0.59%

**Q.** What about the viability, T/C [24] of the same compound?
**A.** 0.08%

**Q.** What about the viability, T/C [25] of the same compound?
**A.** 0.09%

**Q.** And the viability, T/C [26]?
**A.** 0.13%

**Q.** What about the viability, T/C [27] of the same compound?
**A.** 0.15%

**Q.** And the viability, T/C [28]?
**A.** 0.1%

**Q.** And the viability, T/C [29]?
**A.** 0.14%

**Q.** What about the viability, T/C [30] of the same compound?
**A.** 0.12%

**Q.** And the viability, T/C [31]?
**A.** 0.11%

**Q.** What about the viability, T/C [32] of the same compound?
**A.** 0.13%

**Q.** What about the viability, T/C [33] of the same compound?
**A.** 0.18%

**Q.** And the viability, T/C [34]?
**A.** 0.18%

**Q.** What about the viability, T/C [35] of the same compound?
**A.** 1.74%

**Q.** What about the viability, T/C [36] of the same compound?
**A.** 0.19%

**Q.** Which IC50 (second compound 0.0316 µM) does the source give for COC1C=CCC(C)C(C)S(=O)(=O)NC(=O)c2ccc3c(c2)N(CC2CCC21)CC1(CCCc2cc(Cl)ccc21)CO3 (stereo unspecified) + CNC(=O)c1ccc(Nc2nc(OC3CCCC3)c3c(-c4ccc5nc(C)oc5c4)c[nH]c3n2)c(OC)c1 here?
**A.** > 10000 nM

**Q.** What about the IC50 (second compound 0.1 µM) of the same compound?
**A.** 4640 nM

**Q.** What about the IC50 (second compound 0.316 µM) of the same compound?
**A.** < 31.6 nM

**Q.** And the IC50 (second compound 1 µM)?
**A.** < 31.6 nM

**Q.** And the IC50 (second compound 3.16 µM)?
**A.** < 31.6 nM

**Q.** And the IC50 (second compound 10 µM)?
**A.** < 31.6 nM

**Q.** And the viability, T/C [1]?
**A.** 95.9%

**Q.** And the viability, T/C [2]?
**A.** 95.1%

**Q.** What about the viability, T/C [3] of the same compound?
**A.** 94%

**Q.** What about the viability, T/C [4] of the same compound?
**A.** 86.2%

**Q.** What about the viability, T/C [5] of the same compound?
**A.** 104%

**Q.** And the viability, T/C [6]?
**A.** 52.3%

**Q.** And the viability, T/C [7]?
**A.** 56.5%

**Q.** What about the viability, T/C [8] of the same compound?
**A.** 57%

**Q.** What about the viability, T/C [9] of the same compound?
**A.** 57.6%

**Q.** What about the viability, T/C [10] of the same compound?
**A.** 60.9%

**Q.** And the viability, T/C [11]?
**A.** 59%

**Q.** And the viability, T/C [12]?
**A.** 34%

**Q.** What about the viability, T/C [13] of the same compound?
**A.** 37.2%

**Q.** What about the viability, T/C [14] of the same compound?
**A.** 43.9%

**Q.** What about the viability, T/C [15] of the same compound?
**A.** 33%

**Q.** And the viability, T/C [16]?
**A.** 25.7%

**Q.** What about the viability, T/C [17] of the same compound?
**A.** 19.6%

**Q.** What about the viability, T/C [18] of the same compound?
**A.** 20.4%

**Q.** And the viability, T/C [19]?
**A.** 35.1%

**Q.** What about the viability, T/C [20] of the same compound?
**A.** 39.7%

**Q.** What about the viability, T/C [21] of the same compound?
**A.** 34.3%

**Q.** What about the viability, T/C [22] of the same compound?
**A.** 26.4%

**Q.** And the viability, T/C [23]?
**A.** 21.5%

**Q.** What about the viability, T/C [24] of the same compound?
**A.** 17.1%

**Q.** What about the viability, T/C [25] of the same compound?
**A.** 41.6%

**Q.** And the viability, T/C [26]?
**A.** 41%

**Q.** What about the viability, T/C [27] of the same compound?
**A.** 34.5%

**Q.** And the viability, T/C [28]?
**A.** 27.2%

**Q.** And the viability, T/C [29]?
**A.** 22.8%

**Q.** What about the viability, T/C [30] of the same compound?
**A.** 20.3%

**Q.** And the viability, T/C [31]?
**A.** 40.7%

**Q.** And the viability, T/C [32]?
**A.** 33.7%

**Q.** What about the viability, T/C [33] of the same compound?
**A.** 29.8%

**Q.** What about the viability, T/C [34] of the same compound?
**A.** 26.5%

**Q.** And the viability, T/C [35]?
**A.** 19.6%

**Q.** And the viability, T/C [36]?
**A.** 17.3%
